“Also recorded” adds a separate entry of the source.

One test has as its system osteoclast formation. Nature of the test: Osteoclast formation assays in vitro. As to conditions: data not shown. The test is classed as cell-based. As to the method: We interrogated CMAP with this gene signature to identify chemicals with similar genomic mechanisms to bisphosphonates. Drug-drug matching was performed by a nonparametric, rank-based algorithm using Kolmogorov-Smirnov statistic. Gene Set Enrichment Analysis (GSEA) examined shared mechanisms of action to reveal both mimics and anti-mimics of a given compound or disease. Of the chemicals displaying the highest enrichment scores, the top two were anti-cancer agents, namely the PARP inhibitor 1,5-isoquinolinediol, and a first-generation EGFR kinase inhibitor tyrphostin AG1478 (FIG. 2). These compounds were confirmed as “true” bisphosphonate mimetics using osteoclast formation assays in vitro. As with bisphosphonates, osteoclast formation was inhibited by both 1,5-isoquinolinediol and tyrphostin AG1478, the latter in a concentration-dependent manner (data not shown).

The subject of test [1] is HCC827 (del746-750) lung cancer cell line. Format: cell-based. As to the method:
(§1) To validate this, we evaluated the cellular effects of bisphosphonates in EGFR-negative and EGFR-positive cancer cell lines. Mutated cancer cell lines, namely H520, H1666, H3255, HC827, A549, H1650, MCF-7, Caco-2, SW620, and SW480, were grown using standard protocols, and exposed to bisphosphonates. Thereafter, the cells were subject to the MTT assay to assess viability using a commercial kit. Additionally, in certain instances, annexin V staining was performed using a previously described protocol. Quantitative PCR (qPCR) for BCL, Bax, survivin, as well as for the thirteen bisphosphonate signature genes (FIG. 1) was carried out. Protein extracts were subject to SDS-PAGE followed by Western immunoblotting using antibodies to PARP, Akt (total and phosphorylated), Erk (total and phosphorylated), cyclin D1, cyclin B1, PCNA, and GAPDH (Santa Cruz, USA). Flow cytometry and colony forming assays were also performed.
(§2) Based on this prediction, and the common occurrence of these mutations in lung cancer patients, we examined the effect of available approved bisphosphonates on lung cancer cell lines that are driven by the L858R (H3255) or del746-750 (HCC827) mutation (FIGS. 6 and 7).

Test [2] has as its system HCC827 cells. The experiment in a line: FACS analysis and Western blotting for cell cycle and apoptosis, HCC827. The test is classed as cell-based. As to the method:
as §1
(In general: A flow cytometer gives signals particle by particle.)

Test [3] relates to H1975 (L858R/T790M) lung adenocarcinoma cell line. The experiment in a line: Colony formation, H1975. The test is classed as cell-based. The procedure:
To test this hypothesis, colony formation and cell viability assays were carried out using a L858R/T790M-derived lung adenocarcinoma cell line, H1975.

A further test concerns the target T1, recombinant Her2 (Homo sapiens, UniProt P04626).
T1 construct: purchased GENWAY
Nature of the test: Cell-free in vitro kinase assay using recombinant Her2 (Kinase-Glo). The test is classed as biochemical. Conditions: incubated 30 minutes with 50 ng recombinant Her2. The procedure:
We also performed a cell-free in vitro kinase assay to determine if bisphosphonates could inhibit Her2 activity. Briefly, Ert, ZA, Ris, MA, or Til (doses as shown in FIG. 28A) were incubated for 30 minutes with 50 ng recombinant Her2 or EGFR^L858R protein (GENWAY) at 4° C. and tyrosine kinase activity was measured. Following addition of assay buffer (SIGMA) which contained the poly(Glu, Tyr) (4:1) substrate and ATP, the kinase reaction was allowed to proceed for 30 minutes at 30° C. An equal volume of Kinase-Glo substrate (PROMEGA) was then added, and luminescence read manually (TD-20/20, TURNER DESIGN).
On the technique in general: Kinase-Glo measures the ATP left after a reaction by luminescence.

Test [4] deals with HCC827 cells. As to conditions: mouse, in vivo. The procedure:
To verify that that the in vitro experiments described above translated to in vivo efficacy, the effect of bisphosphonates and EGFR inhibitors on tumors in mice were evaluated. HCC827 cells (1×10^8) were injected into the right flank of 6- to 8-week-old female BALB/c nu/nu mice. […] A total of 10 treatments were given, with a 48-hour rest period between injections. Tumor volumes were measured during the rest period following each treatment.
To verify the in vivo mechanism of action, Western analysis and immunohistochemistry were performed on tumor samples at the end of the 10-treatment course. For Western analysis, whole cell protein extracts were obtained with radio-immunoprecipitation assay buffer following standard protocols (Santa Cruz Biotechnology). […] Biotinylated anti-rabbit IgG (E0432, Dako) was used as secondary antibody. Staining was visualized using DAB, and slides were counterstained with hematoxylin, dehydrated, and mounted. Bright-field and fluorescent images were captured using a Stereoscope or Axioplan 2 IE microscope (Zeiss).

The test system of test [5] is lung cancer cell line A549. Conditions: A549, wild type EGFR, ras mutation driven. The procedure: as §1
For test [6], the system named is H3255 (L858R) lung cancer cell line. As to the method:
as §1, §2

The next test concerns the target recombinant EGFR (Homo sapiens, UniProt P00533). As to conditions: 100 μM, incubated 1 hour. From the text:
We used a cell-free in vitro kinase assay using recombinant EGF receptor (EGFR) to determine whether bisphosphonates inhibit the EGFR directly or indirectly. […] A kinase reaction was stimulated with the addition of ATP, following which phosphorylation of the substrate […] was detected using a horseradish peroxidase (HRP)-conjugated anti-phosphotyrosine antibody.

In test [7] the test system is EGFR negative (SW620) colon cancer cell line. Nature of the test: Colony formation (clonogenic assay), SW620. The test is classed as cell-based. The procedure: as §1
In test [8] the test system is HER2-expressing (BT474) breast cancer cell line. The experiment in a line: FACS cell cycle profile (sub-G1), BT474. The test is classed as cell-based.
The test system of test [9] is MDA-MB-231 cells. The experiment in a line: MTT cell viability, MDA-MB-231. The test is classed as cell-based. Conditions: MDA-MB-231, overexpress EGFR. From the text:
(§3) Thereafter, the cells were subject to the MTT assay to assess viability using a commercial kit.

The test system of the next test is BT474 cells. Nature of the test: MTT cell viability, BT474. As to conditions: BT474, overexpress Her2. Format: cell-based.
Excerpt: as §3

The subject of test [10] is EGFR-expressing (MDA-MB-231) breast cancer cell line. The experiment in a line: FACS cell cycle profile (sub-G1), MDA-MB-231. The test is classed as cell-based.
Test [11] deals with HCC827 cells. Nature of the test: Colony formation, HCC827. Format: cell-based. Conditions: tiludronate 40 μM. As to the method: as §1, §2
The test system of test [12] is non-EGFR, non-HER2-expressing (MDA-MB-453) breast cancer cell line. The experiment in a line: FACS cell cycle profile (sub-G1), MDA-MB-453. The test is classed as cell-based.
The test system of test [13] is EGFR-expressing colon cells (SW480). The experiment in a line: Colony formation (clonogenic assay), SW480. The test is classed as cell-based. The procedure:
as §1

For test [14], the system named is MDA-MB-231 cells. Nature of the test: Colony formation, MDA-MB-231. Format: cell-based. Conditions: tiludronate 20 μM, data not shown.

T1 sequence (P04626 23-1255): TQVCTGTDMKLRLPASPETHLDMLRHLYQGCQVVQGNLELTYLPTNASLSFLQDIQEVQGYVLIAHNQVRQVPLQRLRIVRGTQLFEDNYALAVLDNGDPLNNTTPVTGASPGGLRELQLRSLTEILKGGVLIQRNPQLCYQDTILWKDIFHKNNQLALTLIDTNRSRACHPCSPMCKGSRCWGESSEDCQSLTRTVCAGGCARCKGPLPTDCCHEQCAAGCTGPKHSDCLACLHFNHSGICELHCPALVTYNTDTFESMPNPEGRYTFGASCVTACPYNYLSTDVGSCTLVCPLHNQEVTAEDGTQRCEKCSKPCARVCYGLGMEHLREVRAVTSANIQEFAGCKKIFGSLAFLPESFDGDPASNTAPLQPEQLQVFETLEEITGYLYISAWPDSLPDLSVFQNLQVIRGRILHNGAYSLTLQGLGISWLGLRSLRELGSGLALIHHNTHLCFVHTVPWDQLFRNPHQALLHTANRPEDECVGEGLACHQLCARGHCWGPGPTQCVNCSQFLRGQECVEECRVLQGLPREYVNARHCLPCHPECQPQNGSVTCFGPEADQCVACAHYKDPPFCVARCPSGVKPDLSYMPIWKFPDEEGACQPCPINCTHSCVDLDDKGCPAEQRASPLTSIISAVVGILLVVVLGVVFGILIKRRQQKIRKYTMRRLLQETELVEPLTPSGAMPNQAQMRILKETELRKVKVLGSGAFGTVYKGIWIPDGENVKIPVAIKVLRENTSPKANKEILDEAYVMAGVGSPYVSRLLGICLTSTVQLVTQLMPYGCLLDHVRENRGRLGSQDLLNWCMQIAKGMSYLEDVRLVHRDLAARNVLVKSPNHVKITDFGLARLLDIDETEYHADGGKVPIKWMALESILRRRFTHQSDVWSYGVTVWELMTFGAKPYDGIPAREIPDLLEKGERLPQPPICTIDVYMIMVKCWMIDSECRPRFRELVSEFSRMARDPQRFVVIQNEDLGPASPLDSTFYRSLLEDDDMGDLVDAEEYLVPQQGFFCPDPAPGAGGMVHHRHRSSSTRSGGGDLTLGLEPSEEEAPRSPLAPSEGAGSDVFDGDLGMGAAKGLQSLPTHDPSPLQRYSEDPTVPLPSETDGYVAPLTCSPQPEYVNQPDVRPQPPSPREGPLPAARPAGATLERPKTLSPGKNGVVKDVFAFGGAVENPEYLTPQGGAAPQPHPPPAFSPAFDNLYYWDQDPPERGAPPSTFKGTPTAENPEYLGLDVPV
Chain of recombinant EGFR (P00533 25-1210): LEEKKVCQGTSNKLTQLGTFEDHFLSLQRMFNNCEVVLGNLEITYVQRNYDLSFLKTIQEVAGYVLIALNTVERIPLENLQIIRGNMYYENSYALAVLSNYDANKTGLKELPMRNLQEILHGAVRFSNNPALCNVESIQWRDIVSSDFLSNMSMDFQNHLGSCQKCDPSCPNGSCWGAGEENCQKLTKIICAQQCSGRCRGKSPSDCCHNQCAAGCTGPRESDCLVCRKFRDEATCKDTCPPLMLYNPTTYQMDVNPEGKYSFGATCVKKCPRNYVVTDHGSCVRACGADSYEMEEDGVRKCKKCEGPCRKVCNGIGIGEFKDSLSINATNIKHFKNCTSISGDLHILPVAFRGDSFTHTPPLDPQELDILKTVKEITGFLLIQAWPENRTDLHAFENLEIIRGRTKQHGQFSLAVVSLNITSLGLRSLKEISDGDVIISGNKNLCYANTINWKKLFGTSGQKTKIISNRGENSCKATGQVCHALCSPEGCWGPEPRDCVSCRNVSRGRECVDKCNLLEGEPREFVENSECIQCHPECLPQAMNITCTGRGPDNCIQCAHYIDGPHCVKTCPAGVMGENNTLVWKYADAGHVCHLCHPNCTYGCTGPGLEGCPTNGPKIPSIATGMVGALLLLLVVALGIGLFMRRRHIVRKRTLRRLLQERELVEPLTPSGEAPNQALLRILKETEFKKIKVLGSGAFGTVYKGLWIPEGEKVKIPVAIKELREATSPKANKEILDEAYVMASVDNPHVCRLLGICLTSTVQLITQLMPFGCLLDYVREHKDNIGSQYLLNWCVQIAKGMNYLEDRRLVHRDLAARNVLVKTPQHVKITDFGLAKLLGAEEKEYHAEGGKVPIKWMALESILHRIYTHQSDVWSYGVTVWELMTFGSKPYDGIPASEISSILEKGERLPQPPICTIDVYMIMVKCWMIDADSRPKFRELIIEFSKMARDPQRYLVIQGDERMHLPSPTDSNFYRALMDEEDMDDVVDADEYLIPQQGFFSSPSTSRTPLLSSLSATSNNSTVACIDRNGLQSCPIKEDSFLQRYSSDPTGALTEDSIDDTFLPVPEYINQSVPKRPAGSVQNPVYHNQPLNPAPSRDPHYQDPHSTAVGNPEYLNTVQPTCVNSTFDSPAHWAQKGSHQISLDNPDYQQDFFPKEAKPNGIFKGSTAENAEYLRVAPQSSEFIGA

Regarding `COc1cc2ncnc(Nc3cccc(Cl)c3)c2cc1OC` [tyrphostin AG1478], in the test on osteoclast formation, the osteoclast formation entry is recorded as “inhibited”.
Regarding `NCCCCCC(O)(P(=O)(O)O)P(=O)(O)O` [neridronate], in test [1], the “cell viability / cell survival” value is “failed to affect HCC827 cell viability”.
For the compound `C#Cc1cccc(Nc2ncnc3cc(OCCOC)c(OCCOC)cc23)c1` [erlotinib], the “cell cycle and apoptosis” value in the test with HCC827 cells [2] is “mainly increased PARP expression and apoptosis”. The colony formation result in test [3] is recorded as “did not inhibit colony formation”. Also, the “Her2 tyrosine kinase activity” value on recombinant Her2 is “inhibit the tyrosine kinase activity of Her2”. Moreover, in the test on HCC827 cells [4], the “AKT phosphorylation in tumor samples” value is “inhibited AKT phosphorylation”, the “CD31 expression (blood vessels) in tumors” value is “inhibited CD31 expression” and the “ERK phosphorylation in tumor samples” value is recorded as “did not inhibit ERK phosphorylation”. Besides, in test [5], the cell viability entry is “poorly responsive”.
Regarding `NCCC(O)(P(=O)(O)O)P(=O)(O)O` [pamidronate], in [1], the “cell viability / cell survival” value was “failed to affect HCC827 cell viability”.
Take `NCCCC(O)(P(=O)(O)O)P(=O)(O)O` [alendronate]: the “cell viability / cell survival” value in test [1] and in test [6] was “inhibiting cell survival” throughout. The EGFR kinase activity result at recombinant EGFR is listed as “directly inhibited EGFR kinase activity”.
With `O=P(O)(O)C(O)(Cc1cccnc1)P(=O)(O)O` [risedronate], the “cell viability / cell survival” value in [1] and in test [6] was “inhibiting cell survival” each time. Also, the “Her2 tyrosine kinase activity” value at recombinant Her2 is on record as “inhibit the tyrosine kinase activity of Her2”.
As to `O=P(O)(O)C(Sc1ccc(Cl)cc1)P(=O)(O)O` [tiludronate], the colony formation result in test [3] was “did not affect colony formation”; in [7] it was “has no effect”; in the test with HCC827 cells [11] it was “not seen”; in [13], “has no effect”; in the test on MDA-MB-231 cells [14] it was “not seen”. Besides, the “sub-G1 fraction (apoptosis)” value in test [8], in [10] and in [12] was “has no effect” throughout. The cell viability result in the test with MDA-MB-231 cells [9] and in the test on BT474 cells was “has no effect” in each case. For the same compound, the “cell viability / cell survival” value in test [1] and in test [6] was “failed to affect cell viability; also recorded: without effect” throughout. Further, the “Her2 tyrosine kinase activity” value at recombinant Her2 is “inhibit the tyrosine kinase activity of Her2”.
With `O=P(O)(O)C(O)(Cc1cnc2ccccn12)P(=O)(O)O` [minodronic acid], the “cell viability / cell survival” value in test [1] and in [6] was “inhibiting cell survival; also recorded: two most potent” in each case. The “Her2 tyrosine kinase activity” value on recombinant Her2 is “inhibit the tyrosine kinase activity of Her2”.
Regarding `O=P(O)(O)C(NC1CCCCCC1)P(=O)(O)O` [incadronate], the “cell viability / cell survival” value in test [1] and in test [6] was “inhibiting cell survival” throughout.
As for `Oc1cccc2c(O)nccc12` [1,5-isoquinolinediol], the osteoclast formation entry in the test on osteoclast formation is given as “inhibited”.

(Values after US20160038516A1, “COMBINATION CANCER THERAPY USING BISPHOSPHONATES AND ANTI-EGFR AGENTS” (Mone Zaidi Consulting, Inc., priority 2012, published 2016).)
